Key:
Rattus norvegicus [1] = experiment: Percent inhibition of gastric lesions induced by ethanol was measured, after administration of 10 mg/kg po in rats; assay type: functional; conditions: Stomach
Rattus norvegicus [2] = experiment: Percent inhibition of gastric lesions induced by endomethacin was measured, after administration of 10 mg/kg po in rats; assay type: functional; conditions: Stomach
Rattus norvegicus [3] = experiment: Reduction in length (control value = 138+/-12.1) of gastric lesions induced by ethanol was measured, after administration of 10 mg/kg po in rats; assay type: functional, Stomach
Rattus norvegicus [4] = experiment: Reduction in length (control value = 62.8+/-12.4) of gastric lesions induced by endomethacin was measured, after administration of 10 mg/kg po in rats; assay type: functional, Stomach
Rattus norvegicus [5] = experiment: pH of the gastric juice (Control value = 1.44+/-0.01) of stomach content of pylorus ligated rats was measured (10 mg/kg po of the Compound was administered 1 hr before the pylorus ligation); assay type: ADME, organism-based; conditions: in vivo
Rattus norvegicus [6] = experiment: Acid output from the stomach (control value = 119.7+/-11.7) in pylorus ligated rats (10 mg/kg po of the Compound was administered 1 hr before the pylorus ligation); assay type: functional
Rattus norvegicus [7] = experiment: Acid output from the stomach (control value = 119.7+/-11.7) in pylorus ligated rats (5 mg/kg po of the Compound was administered 1 hr before the pylorus ligation); assay type: functional
Rattus norvegicus [8] = experiment: Percent inhibition of gastric lesions (length = 102.2+/-8.1) induced by ethanol was measured, after administration of 5 mg/kg po in endomethacin pretreated rats; assay type: functional; conditions: Stomach
Rattus norvegicus [9] = experiment: Percent inhibition of gastric lesions (length = 15.3+/-2.9) induced by ethanol was measured, after administration of 10 mg/kg po in rats; assay type: functional; conditions: Stomach
Rattus norvegicus [10] = experiment: Percent inhibition of gastric lesions (length = 31.4+/-3.8) induced by ethanol was measured, after administration of 10 mg/kg po in L-NAME-pretreated rats; assay type: functional; conditions: Stomach
Rattus norvegicus [11] = experiment: Percent inhibition of gastric lesions (length = 60.8+/-11.6) induced by ethanol was measured, after administration of 5 mg/kg po in L-NAME-pretreated rats; assay type: functional; conditions: Stomach
Rattus norvegicus [12] = experiment: Percent inhibition of gastric lesions (length = 61.5+/-4.4) induced by ethanol was measured, after administration of 10 mg/kg po in NEM-pretreated rats; assay type: functional; conditions: Stomach
Rattus norvegicus [13] = experiment: Percent inhibition of gastric lesions (length = 92.3+/-9) induced by ethanol was measured, after administration of 5 mg/kg po in NEM-pretreated rats; assay type: functional; conditions: Stomach
Rattus norvegicus [14] = experiment: Percent inhibition of gastric lesions (length = 96.1+/-13.7) induced by ethanol was measured, after administration of 10 mg/kg po in endomethacin pretreated rats; assay type: functional; conditions: Stomach
Rattus norvegicus [15] = experiment: Percent inhibition of gastric lesions induced by ethanol was measured, after administration of 2.5 mg/kg po in rats; assay type: functional; conditions: Stomach
Rattus norvegicus [16] = experiment: Percent inhibition of gastric lesions induced by ethanol was measured, after administration of 5 mg/kg po in rats; assay type: functional; conditions: Stomach
Rattus norvegicus [17] = experiment: Percent inhibition of gastric lesions induced by endomethacin was measured, after administration of 2.5 mg/kg po in rats; assay type: functional; conditions: Stomach
Rattus norvegicus [18] = experiment: Percent inhibition of gastric lesions induced by endomethacin was measured, after administration of 5 mg/kg po in rats; assay type: functional; conditions: Stomach
Rattus norvegicus [19] = experiment: Reduction in length (control value = 126.1+/-5.7) of gastric lesions induced by ethanol was measured, after administration of 10 mg/kg po in rats; assay type: functional, Stomach
Rattus norvegicus [20] = experiment: Reduction in length (control value = 126.1+/-5.7) of gastric lesions induced by ethanol was measured, after administration of 2.5 mg/kg po in rats; assay type: functional, Stomach
Rattus norvegicus [21] = experiment: Reduction in length (control value = 126.1+/-5.7) of gastric lesions induced by ethanol was measured, after administration of 5 mg/kg po in rats; assay type: functional, Stomach
Rattus norvegicus [22] = experiment: Reduction in length (control value = 124.3+/-7.8) of gastric lesions induced by ethanol was measured, after administration of 10 mg/kg po in indomethacin-pretreated rats; assay type: functional, Stomach
Rattus norvegicus [23] = experiment: Reduction in length (control value = 124.3+/-7.8) of gastric lesions induced by ethanol was measured, after administration of 5 mg/kg po in indomethacin-pretreated rats; assay type: functional, Stomach
Rattus norvegicus [24] = experiment: Reduction in length (control value = 169.6+/-1.9) of gastric lesions induced by ethanol was measured, after administration of 10 mg/kg po in NEM-pretreated rats; assay type: functional, Stomach
Rattus norvegicus [25] = experiment: Reduction in length (control value = 169.6+/-1.9) of gastric lesions induced by ethanol was measured, after administration of 5 mg/kg po in NEM-pretreated rats; assay type: functional, Stomach
Rattus norvegicus [26] = experiment: Reduction in length (control value = 188.7+/-10.5) of gastric lesions induced by ethanol was measured, after administration of 5 mg/kg po in L-NAME-pretreated rats; assay type: functional, Stomach
Rattus norvegicus [27] = experiment: Reduction in length (control value = 206.7+/-6.3) of gastric lesions induced by endomethacin was measured, after administration of 5 mg/kg po NEM-pretreated in rats; assay type: functional, Stomach
Rattus norvegicus [28] = experiment: Reduction in length (control value = 70.8+/-5.3) of gastric lesions induced by endomethacin was measured, after administration of 10 mg/kg po in rats; assay type: functional, Stomach
Rattus norvegicus [29] = experiment: Reduction in length (control value = 70.8+/-5.3) of gastric lesions induced by endomethacin was measured, after administration of 2.5 mg/kg po in rats; assay type: functional, Stomach
Rattus norvegicus [30] = experiment: Reduction in length (control value = 70.8+/-5.3) of gastric lesions induced by endomethacin was measured, after administration of 5 mg/kg po in rats; assay type: functional, Stomach
Rattus norvegicus [31] = experiment: Volume of the gastric juice (Control value = 4.9+/-0.3) of stomach content of pylorus ligated rats was measured (10 mg/kg po of the Compound was administered 1 hr before the pylorus ligation); assay type: functional
Rattus norvegicus [32] = experiment: Volume of the gastric juice (Control value = 4.9+/-0.3) of stomach content of pylorus ligated rats was measured (5 mg/kg po of the Compound was administered 1 hr before the pylorus ligation); assay type: functional
Rattus norvegicus [33] = experiment: pH of the gastric juice (Control value = 1.44+/-0.01) of stomach content of pylorus ligated rats was measured ( 5 mg/kg po of the Compound was administered 1 hr before the pylorus ligation); assay type: ADME, organism-based; set-up: dose 5 mg/kg, route oral; conditions: in vivo
Rattus norvegicus [34] = experiment: Percent inhibition of gastric lesions (length = 35.7+/-2.3) induced by ethanol was measured, after administration of 5 mg/kg po in rats; assay type: functional; conditions: Stomach
Rattus norvegicus [35] = experiment: Reduction in length (control value = 54.6+/-16.5) of gastric lesions induced by endomethacin was measured, after administration of 10 mg/kg po in rats; assay type: functional, Stomach
Rattus norvegicus [36] = experiment: Reduction in length (control value = 107+/-14.5) of gastric lesions induced by ethanol was measured, after administration of 2.5 mg/kg po in rats; assay type: functional, Stomach
Rattus norvegicus [37] = experiment: Reduction in length (control value = 126+/-9.1) of gastric lesions induced by ethanol was measured, after administration of 5 mg/kg po in rats; assay type: functional, Stomach
Rattus norvegicus [38] = experiment: Reduction in length ((control value = 126+/-9.1) of gastric lesions induced by ethanol was measured, after administration of 2.5 mg/kg po in rats; assay type: functional, Stomach
Rattus norvegicus [39] = experiment: Reduction in length (control value = 88.9+/-5.5) of gastric lesions induced by endomethacin was measured, after administration of 5 mg/kg po in rats; assay type: functional, Stomach
Rattus norvegicus [40] = experiment: Reduction in length ((control value = 126+/-9.1)of gastric lesions induced by ethanol was measured, after administration of 2.5 mg/kg po in rats; assay type: functional, Stomach

`CC1CC[C@@]2(OC1)OC1CC3C4CC=C5C[C@@H](O)CC[C@]5(C)C4CC[C@]3(C)[C@@]1(O)[C@@H]2C` (some centres not stated) gave an inhibition in vivo at 10 mg/kg (Rattus norvegicus [1]) of 2.5%, an inhibition in vivo at 10 mg/kg (Rattus norvegicus [2]) of 6.8% and a Length (Rattus norvegicus [3]) of 134 mm. It also gave a Length (Rattus norvegicus [4]) of 67.1 mm.

`C[C@@H]1CC[C@@]2(OC1)OC1C[C@H]3[C@@H]4CC=C5C[C@@H](O[C@@H]6O[C@H](CO)[C@@H](O[C@@H]7O[C@@H](CO)[C@H](O)[C@H]7O)[C@H](O)[C@H]6O[C@@H]6O[C@@H](C)[C@H](O)[C@@H](O)[C@H]6O)CC[C@]5(C)[C@H]4CC[C@]3(C)C1[C@@H]2C` (some centres not stated) gave a pH (Rattus norvegicus [5]) of 1.48, an Acid output (Rattus norvegicus [6]) of 82.1 u equiv hr-1 and an Acid output (Rattus norvegicus [7]) of 100.5 u equiv hr-1. The inhibition in vivo at 5 mg/kg (Rattus norvegicus [8]) was 17.8%, the inhibition in vivo at 10 mg/kg (Rattus norvegicus [9]) was 86.9% and the inhibition in vivo at 10 mg/kg (Rattus norvegicus [10]) was 83.4%. The inhibition in vivo at 5 mg/kg (Rattus norvegicus [11]) was 67.8%, the inhibition in vivo at 10 mg/kg (Rattus norvegicus [12]) was 63.7% and the inhibition in vivo at 5 mg/kg (Rattus norvegicus [13]) was 45.6%. It also gave an inhibition in vivo at 10 mg/kg (Rattus norvegicus [14]) of 22.7%, an inhibition in vivo at 10 mg/kg (Rattus norvegicus [1]) of 91% and an inhibition in vivo at 2.5 mg/kg (Rattus norvegicus [15]) of 39.7%. For the same compound, the inhibition in vivo at 5 mg/kg (Rattus norvegicus [16]) was 63.1%, the inhibition in vivo at 10 mg/kg (Rattus norvegicus [2]) was 84.6% and the inhibition in vivo at 2.5 mg/kg (Rattus norvegicus [17]) was 60.6%. The inhibition in vivo at 5 mg/kg (Rattus norvegicus [18]) was 67.2%, the Length (Rattus norvegicus [19]) was 11.4 mm and the Length (Rattus norvegicus [20]) was 76.1 mm. It also gave a Length (Rattus norvegicus [21]) of 46.5 mm, a Length (Rattus norvegicus [22]) of 96.1 mm and a Length (Rattus norvegicus [23]) of 102 mm. For the same compound, the Length (Rattus norvegicus [24]) was 31.4 mm, the Length (Rattus norvegicus [25]) was 92.3 mm and the Length (Rattus norvegicus [26]) was 60.8 mm. For the same compound, the Length (Rattus norvegicus [27]) was 61.5 mm, the Length (Rattus norvegicus [28]) was 10.9 mm and the Length (Rattus norvegicus [29]) was 27.9 mm. For the same compound, the Length (Rattus norvegicus [30]) was 23.2 mm, the Volume (Rattus norvegicus [31]) was 3.6 ml 4hr-1 and the Volume (Rattus norvegicus [32]) was 4.4 ml 4hr-1. The pH (Rattus norvegicus [33]) was 1.47 and the inhibition in vivo at 5 mg/kg (Rattus norvegicus [34]) was 69.3%.

`C[C@@H]1CC[C@@]2(OC1)O[C@H]1C[C@H]3[C@@H]4CC=C5C[C@@H](O)CC[C@]5(C)[C@H]4CC[C@]3(C)[C@H]1[C@@H]2C` [DISOGENIN] showed an inhibition in vivo at 10 mg/kg (Rattus norvegicus [1]) of 28.1%, an inhibition in vivo at 10 mg/kg (Rattus norvegicus [2]) of 8.6% and a Length (Rattus norvegicus [35]) of 49.9 mm. The Length (Rattus norvegicus [36]) was 76.9 mm.

`C[C@H](CCC1(O)OC2CC3C4CC=C5C[C@@H](O[C@@H]6O[C@H](CO)C(O[C@@H]7O[C@@H](CO)[C@H](O)[C@H]7O)[C@@H](O)[C@H]6O[C@@H]6O[C@@H](C)[C@H](O)[C@@H](O)[C@H]6O)CC[C@]5(C)C4CC[C@]3(C)C2[C@@H]1C)CO[C@@H]1O[C@H](CO)[C@@H](O)[C@H](O)[C@H]1O` (some centres not stated) [PARISAPONIN I] showed an inhibition in vivo at 2.5 mg/kg (Rattus norvegicus [15]) of 9.2%, an inhibition in vivo at 5 mg/kg (Rattus norvegicus [16]) of 15.6% and an inhibition in vivo at 5 mg/kg (Rattus norvegicus [18]) of 7.2%. For the same compound, the Length (Rattus norvegicus [37]) was 106 mm, the Length (Rattus norvegicus [38]) was 114 mm and the Length (Rattus norvegicus [39]) was 82.5 mm.

`C[C@H](CCC1(O)OC2CC3C4CC=C5C[C@@H](O[C@@H]6O[C@H](CO)[C@@H](O)[C@H](O)[C@H]6O[C@@H]6O[C@@H](C)[C@H](O)[C@@H](O)[C@H]6O)CC[C@]5(C)C4CC[C@]3(C)C2[C@@H]1C)CO[C@@H]1O[C@H](CO)[C@@H](O)[C@H](O)[C@H]1O` (some centres not stated) [TRIGOFOENOSIDE A] was tested, and the inhibition in vivo at 2.5 mg/kg (Rattus norvegicus [15]) was 26.2%, the inhibition in vivo at 5 mg/kg (Rattus norvegicus [16]) was 11.7% and the inhibition in vivo at 5 mg/kg (Rattus norvegicus [18]) was 16%. The Length (Rattus norvegicus [37]) was 111 mm, the Length (Rattus norvegicus [40]) was 93 mm and the Length (Rattus norvegicus [39]) was 74.7 mm.
